The target of one test is T1, IRAK4 (Homo sapiens, UniProt Q9NWZ3).
T1 sequence (Q9NWZ3 1-460): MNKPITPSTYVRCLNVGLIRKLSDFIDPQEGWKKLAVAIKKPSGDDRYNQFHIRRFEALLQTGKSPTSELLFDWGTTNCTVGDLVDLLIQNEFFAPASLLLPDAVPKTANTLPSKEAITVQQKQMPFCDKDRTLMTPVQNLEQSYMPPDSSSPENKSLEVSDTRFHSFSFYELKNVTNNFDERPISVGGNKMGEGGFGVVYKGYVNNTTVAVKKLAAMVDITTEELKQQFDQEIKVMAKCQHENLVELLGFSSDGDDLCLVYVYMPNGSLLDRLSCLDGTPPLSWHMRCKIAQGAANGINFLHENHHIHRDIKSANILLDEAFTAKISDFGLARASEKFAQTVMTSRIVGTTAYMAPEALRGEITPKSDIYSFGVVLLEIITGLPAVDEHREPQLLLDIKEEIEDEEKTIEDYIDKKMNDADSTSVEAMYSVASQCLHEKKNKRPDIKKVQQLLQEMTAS
The test can be described thus: IRAK4 biochemical assay, ADP-Glo kinase assay. The method, then: (§1) IRAK4 and TAK1 biochemical assays: kinase activity was measured by ADP-Glo kinase assay (Promega).

Another test concerns the target T2, TAK1 (Homo sapiens, UniProt O43318).
T2 sequence (O43318 1-303 limits assumed): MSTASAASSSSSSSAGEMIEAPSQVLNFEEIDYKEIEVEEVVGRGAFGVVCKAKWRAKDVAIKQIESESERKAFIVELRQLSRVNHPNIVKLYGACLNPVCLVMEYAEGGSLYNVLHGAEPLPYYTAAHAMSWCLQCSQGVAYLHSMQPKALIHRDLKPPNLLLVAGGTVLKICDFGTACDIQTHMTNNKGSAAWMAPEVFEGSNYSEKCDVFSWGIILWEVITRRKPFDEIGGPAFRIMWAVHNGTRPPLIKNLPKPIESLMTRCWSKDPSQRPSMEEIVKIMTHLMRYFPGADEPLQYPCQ
The test can be described thus: TAK1 biochemical assay, ADP-Glo kinase assay. On the procedure:
as §1
A general note: ADP-Glo first removes unused ATP, then detects ADP through luciferase.

In the next test the test system is IL-23, THP1 cells. Put plainly: IL-23 assay, THP1 cells primed with IFNg, LPS stimulated, ELISA. In kind it is cell-based. The settings on record: Homo sapiens, THP-1. The method, then:
(§2) IL-23 assays: THP1 cells or human primary monocyte-derived dendritic cells (DC) were primed overnight with IFNg. Following one hour preincubation with compound, cells were stimulated overnight with LPS. IL-23 released into the media was quantitated by ELISA.
In general terms: ELISA stands for enzyme-linked immunosorbent assay.

A further test concerns IL-6, HUVEC. Put plainly: IL-6 assay, HUVEC, ELISA. In kind it is cell-based, human. The settings on record: for IC50: Homo sapiens.
Another test relates to IL-23, dendritic cells. Put plainly: IL-23 assay, human primary monocyte-derived dendritic cells, LPS stimulated, ELISA. In kind it is cell-based. The settings on record: Dendritic cell. On the procedure: as §2
Another test concerns IL-8, HUVEC. Put plainly: IL-8 assay, HUVEC, ELISA. In kind it is cell-based, human. The settings on record: for IC50: Homo sapiens.
[1] abbreviates: THP1 cells, IFNy primed, LPS stimulated, 10 pt, read-out: IL23-p19 ELISA, THP1-IFNy, LPS, 10 pt.
[2] abbreviates: THP cells, LPS, read-out: IL23 (THP, LPS) IC50.
The mark [3] stands for this setting: read-out: IL23 (LPS induced) IC50.
The mark [4] stands for this setting: read-out: IL6 (HUVEC, IL-1β) IC50.
[5] abbreviates: read-out: IL6 (HUVEC, LPS) IC50.
[6] abbreviates: read-out: IL6 (HUVEC, TNFα) IC50.
The mark [7] stands for this setting: LPS stimulated, 10 pt, read-out: IL23-P19, ELISA, Dendritic, LPS, 10 pt.
The mark [8] stands for this setting: LPS, read-out: IL23 (Dentritic Cells, LPS) IC50.
[9] abbreviates: read-out: IL8 (HUVEC, IL-1β) IC50.
[10] abbreviates: read-out: IL8 (HUVEC, LPS) IC50.
Setting [11] is: read-out: IL8 (HUVEC, TNFα) IC50.

Where two headings read alike, the source gives them in different places. Some results are limits rather than exact numbers.

In the case of `NC(=O)[C@@H]1[C@H](Nc2nc(Nc3cccc(C(=O)N4CCCC4)c3)ncc2-c2cccc(F)c2)[C@H]2C=C[C@@H]1C2` [Compound 11, (1S,2S,3R,4R)-3-((5-(3-fluorophenyl)-2-((3-(pyrrolidine-1-carbonyl)phenyl)amino)pyrimidin-4-yl)amino)bicyclo[2.2.1] hept-5-ene-2-carboxamide], the IC50 against IRAK4 is 6 nM; on TAK1, 106 nM; with IL-23, THP1 cells (setting [1]), below 250 nM; in the test with IL-23, THP1 cells (setting [2]), 130 nM; with IL-23, THP1 cells (setting [3]) it was 130 nM; in the test with IL-6, HUVEC (setting [4]), 140 nM. For the same molecule, the IC50 was 130 nM with IL-6, HUVEC (setting [5]); 1700 nM in the test on IL-6, HUVEC (setting [6]); below 100 nM in the test on IL-23, dendritic cells (setting [7]); 70 nM with IL-23, dendritic cells (setting [8]); 310 nM in the test with IL-8, HUVEC (setting [9]); 950 nM with IL-8, HUVEC (setting [10]). Further, the IC50 in the test on IL-8, HUVEC (setting [11]) was determined as 6000 nM. The “Selectivity (TAK1/IRAK4)” value at IRAK4 (ratio of TAK1 and IRAK4 IC50) is 17. In the test with IL-6, HUVEC (ratio TNFα/IL-1β), the “Selectivity IL6 (TNFα/IL-1β)” value came out at 12. Moreover, in the test on IL-6, HUVEC (ratio TNFα/LPS), the “Selectivity IL6 (TNFα/LPS)” value is recorded as 13. Besides, in the test with IL-8, HUVEC (ratio TNFα/IL-1β), the “Selectivity IL8 (TNFα/IL-1β)” value is recorded as 18. The “Selectivity IL8 (TNFα/LPS)” value in the test on IL-8, HUVEC (ratio TNFα/LPS) came to 6.

`NC(=O)[C@@H]1[C@H](Nc2nc(Nc3cccc(C(=O)N4CCCC4)c3)ncc2-c2ccnc(F)c2)[C@H]2C=C[C@@H]1C2` [Compound 16, (1S,2S,3R,4R)-3-((5-(2-fluoropyridin-4-yl)-2-((3-(pyrrolidine-1-carbonyl)phenyl)amino)pyrimidin-4-yl)amino)bicyclo[2.2.1] hept-5-ene-2-carboxamide]: the IC50 against IRAK4 is 3 nM; against TAK1, 17 nM; in the test on IL-23, THP1 cells (setting [1]) it was below 100 nM; in the test on IL-23, THP1 cells (setting [2]), 100 nM; in the test with IL-23, THP1 cells (setting [3]), 100 nM; with IL-6, HUVEC (setting [4]), 110 nM. The IC50 is 120 nM in the test on IL-6, HUVEC (setting [5]); 1200 nM in the test on IL-6, HUVEC (setting [6]); below 250 nM in the test on IL-23, dendritic cells (setting [7]); 110 nM in the test with IL-23, dendritic cells (setting [8]); 250 nM in the test on IL-8, HUVEC (setting [9]); 1000 nM in the test with IL-8, HUVEC (setting [10]). Further, in the test with IL-8, HUVEC (setting [11]), the IC50 came out at 3000 nM.
